Target: human BACE (Homo sapiens, UniProt P56817)
Test: Test 1: Inhibition of Human BACE
Type: biochemical
Source text: Test 1: Inhibition of Human BACE

Sequence of human BACE (P56817 46-457 limits assumed): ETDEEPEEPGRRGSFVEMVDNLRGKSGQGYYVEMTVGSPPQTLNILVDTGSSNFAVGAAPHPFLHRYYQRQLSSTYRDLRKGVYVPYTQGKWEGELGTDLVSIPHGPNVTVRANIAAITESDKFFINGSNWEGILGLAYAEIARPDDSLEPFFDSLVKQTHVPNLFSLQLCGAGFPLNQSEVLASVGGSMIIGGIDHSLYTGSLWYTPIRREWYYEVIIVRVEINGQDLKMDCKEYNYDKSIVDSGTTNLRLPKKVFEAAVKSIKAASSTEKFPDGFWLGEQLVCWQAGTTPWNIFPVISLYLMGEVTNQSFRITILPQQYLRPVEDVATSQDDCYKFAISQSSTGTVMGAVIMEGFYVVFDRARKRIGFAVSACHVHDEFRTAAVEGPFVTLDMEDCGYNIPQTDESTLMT

Which IC50 does the source give for CC(=O)c1cc2cc(c1)C(=O)N[C@H]([C@H](O)CNC1(c3cccc(C(C)C)c3)CC1)Cc1cccc(c1)CCCCO2 [Example 5, (S)-18-Acetyl-4-{(R)-1-hydroxy-2-[1-(3-isopropyl-phenyl)-cyclopropylamino]-ethyl}-15-oxa-3-aza-tricyclo[14.3.1.1*6,10*]henicosa-1(20),6,8,10(21),16,18-hexaen-2-one] here?
Its IC50 is 250 nM.

Reference: patent US8039455B2, “Macrocyclic compounds useful as BACE inhibitors” (Novartis AG, priority 2005, dated 2011)
